# Values quoted from earlier work as cited in PubChem BioAssay AID1259409 (Chemical Carcinogenesis Research Information System (CCRIS), 2018).
# Tested on: rodent chemically induced tumor inhibition, incidence and multiplicity
# Test: CCRIS tumor inhibitor studies
# Conditions: Carcinogen: 7,12-DIMETHYLBENZ[A]ANTHRACENE, 57-97-6, Route [Inhibitor]: ORAL, Species: RAT, Strain/Sex: SPRAGUE-DAWLEY/FEMALE, Promoter: NONE USED
structure (smiles),measurement,setting,value
C[Se]C#N,"tumour outcome (control, treated, inhibition, significance)","Dose [Inhibitor]: 0, 1 PPM (AS SELENIUM) IN DIET BEGINNING 2 WK PRIOR TO CARCINOGEN DOSE AND CONTINUING FOR DURATION OF STUDY (STUDY DURAT, Target Tissue: Type of Lesion: MAMMARY GLAND: ADENOCARCINOMA, Dose [Carcinogen]: 10 MG ONCE AT 55 D OF AGE","88%, 64%, 27%, not significant"
same,"tumour outcome (control, treated, inhibition, significance)","Dose [Inhibitor]: 0, 2 PPM (AS SELENIUM) IN DIET BEGINNING 2 WK PRIOR TO CARCINOGEN DOSE AND CONTINUING FOR DURATION OF STUDY (STUDY DURAT, Target Tissue: Type of Lesion: MAMMARY GLAND: ADENOCARCINOMA, Dose [Carcinogen]: 10 MG ONCE AT 55 D OF AGE","88%, 52%, 41%, p<0.05"
same,"tumour outcome (control, treated, inhibition, significance)","Dose [Inhibitor]: 0, 3 PPM (AS SELENIUM) IN DIET BEGINNING 2 WK PRIOR TO CARCINOGEN DOSE AND CONTINUING FOR DURATION OF STUDY (STUDY DURAT, Target Tissue: Type of Lesion: MAMMARY GLAND: ADENOCARCINOMA, Dose [Carcinogen]: 10 MG ONCE AT 55 D OF AGE","88%, 40%, 55%, p<0.05"
same,"tumour outcome (control, treated, inhibition, significance)","Dose [Inhibitor]: 0.1, 2 PPM (SELENIUM) IN DIET FOR 3 WK BEGINNING 2 WK PRIOR TO CARCINOGEN DOSE (STUDY DURATION: 25 WK), Target Tissue: Type of Lesion: MAMMARY GLAND: TUMOR, Dose [Carcinogen]: 10 MG ONCE","25/30 (83%), 19/30 (63%), 24%, not significant"
